Measurements: US9951064B2, “Azaindazole compounds as inhibitors of T790M containing EGFR mutants” (Genentech, Inc., priority 2013, dated 2018)

Legend:
EGFR T790M L858R = target: T1, EGFR T790M L858R (Homo sapiens, UniProt P00533, L858R/T790M); assay: EGFR T790M L858R biochemical assay (Caliper mobility shift); conditions: 5 μM ATP; apparent Ki (Morrison fit) converted by Cheng-Prusoff, Km of ATP 1.3 μM
T1 construct: purchased Life Technologies PV4879
Summary of the method: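 Reactions run 30 minutes at room temperature (22 °C), stopped with 80 mM EDTA. Phosphorylated product and substrate separated electrophoretically and quantified by Caliper mobility shift.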

EGFR del746-750 T790M = target: T2, EGFR del746-750 T790M (Homo sapiens, UniProt P00533, DEL746-750/T790M); assay: EGFR del746-750 T790M biochemical assay (Caliper mobility shift); conditions: 5 μM ATP; apparent Ki (Morrison fit) converted by Cheng-Prusoff, Km of ATP 2.1 μM; read-out: EGFR(T790M/d746-750) Ki
T2 construct: purchased Carna Biosciences 08-528
Summary of the method: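 Kinase reactions ran 30 min at room temperature (22 °C), then were stopped with 80 mM EDTA. Phosphorylated product and substrate were separated electrophoretically and quantified by Caliper mobility shift.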

[1] = target: T3, phosphor-EGFR in H1975(L585R/T790M) mutant EGFR expressing cells (Homo sapiens, UniProt P00533, L858R/T790M); assay: H1975 pEGFR MSD cellular assay; type: cell-based; conditions: NCI-H1975 cells, serum starved, 1 hour compound incubation, pEGFR Tyr1068 MSD; read-out: HI975 pEGFR EC50
T3 construct: host or cells: NCI-H1975
Summary of the method: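 NCI-H1975 cells, 30,000/well, serum-starved overnight, then treated 1 hour at 37° C with serially diluted compounds in serum-free medium (0.5% DMSO). Lysates captured on anti-phospho-EGFR plates overnight at 4° C, detected with SULFO-TAG anti-total EGFR by electrochemiluminescence. Inhibition vs untreated controls; EC50 from 4-parameter logistic fit.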

[2] = test system: H1975 (EGFR T790M/L858R) cell proliferation; assay: H1975 proliferation assay (Cell Titer-Glo); type: cell-based; conditions: Homo sapiens, NCI-H1975, 72 h, NCI-H1975 cells, 72 hour incubation, read-out: H1975 antiproliferative EC50
Experimental: H1975 Proliferation Assays
All cell culture reagents were purchased from Invitrogen/Gibco. Cells are cultured at 37° C. at 5% CO2 and split as recommended by ATCC.

T2 sequence (P00533 with tags, fused parts or gaps DEL746-750/T790M limits assumed): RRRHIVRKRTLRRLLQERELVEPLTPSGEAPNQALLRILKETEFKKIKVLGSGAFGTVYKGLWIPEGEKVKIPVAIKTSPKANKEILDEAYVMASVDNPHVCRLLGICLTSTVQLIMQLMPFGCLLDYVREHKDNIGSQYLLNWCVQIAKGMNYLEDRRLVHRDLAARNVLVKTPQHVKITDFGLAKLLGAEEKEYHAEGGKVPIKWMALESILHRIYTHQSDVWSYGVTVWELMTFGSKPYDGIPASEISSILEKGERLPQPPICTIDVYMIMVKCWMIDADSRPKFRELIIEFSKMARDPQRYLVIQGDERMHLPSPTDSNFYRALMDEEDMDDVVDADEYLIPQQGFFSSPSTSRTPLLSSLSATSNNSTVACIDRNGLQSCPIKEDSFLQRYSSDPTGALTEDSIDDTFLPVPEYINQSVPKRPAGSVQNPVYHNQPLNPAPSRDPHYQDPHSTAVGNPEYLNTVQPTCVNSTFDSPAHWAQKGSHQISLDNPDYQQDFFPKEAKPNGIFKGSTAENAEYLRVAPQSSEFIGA
T3 sequence (P00533 25-1210 T790M/L858R): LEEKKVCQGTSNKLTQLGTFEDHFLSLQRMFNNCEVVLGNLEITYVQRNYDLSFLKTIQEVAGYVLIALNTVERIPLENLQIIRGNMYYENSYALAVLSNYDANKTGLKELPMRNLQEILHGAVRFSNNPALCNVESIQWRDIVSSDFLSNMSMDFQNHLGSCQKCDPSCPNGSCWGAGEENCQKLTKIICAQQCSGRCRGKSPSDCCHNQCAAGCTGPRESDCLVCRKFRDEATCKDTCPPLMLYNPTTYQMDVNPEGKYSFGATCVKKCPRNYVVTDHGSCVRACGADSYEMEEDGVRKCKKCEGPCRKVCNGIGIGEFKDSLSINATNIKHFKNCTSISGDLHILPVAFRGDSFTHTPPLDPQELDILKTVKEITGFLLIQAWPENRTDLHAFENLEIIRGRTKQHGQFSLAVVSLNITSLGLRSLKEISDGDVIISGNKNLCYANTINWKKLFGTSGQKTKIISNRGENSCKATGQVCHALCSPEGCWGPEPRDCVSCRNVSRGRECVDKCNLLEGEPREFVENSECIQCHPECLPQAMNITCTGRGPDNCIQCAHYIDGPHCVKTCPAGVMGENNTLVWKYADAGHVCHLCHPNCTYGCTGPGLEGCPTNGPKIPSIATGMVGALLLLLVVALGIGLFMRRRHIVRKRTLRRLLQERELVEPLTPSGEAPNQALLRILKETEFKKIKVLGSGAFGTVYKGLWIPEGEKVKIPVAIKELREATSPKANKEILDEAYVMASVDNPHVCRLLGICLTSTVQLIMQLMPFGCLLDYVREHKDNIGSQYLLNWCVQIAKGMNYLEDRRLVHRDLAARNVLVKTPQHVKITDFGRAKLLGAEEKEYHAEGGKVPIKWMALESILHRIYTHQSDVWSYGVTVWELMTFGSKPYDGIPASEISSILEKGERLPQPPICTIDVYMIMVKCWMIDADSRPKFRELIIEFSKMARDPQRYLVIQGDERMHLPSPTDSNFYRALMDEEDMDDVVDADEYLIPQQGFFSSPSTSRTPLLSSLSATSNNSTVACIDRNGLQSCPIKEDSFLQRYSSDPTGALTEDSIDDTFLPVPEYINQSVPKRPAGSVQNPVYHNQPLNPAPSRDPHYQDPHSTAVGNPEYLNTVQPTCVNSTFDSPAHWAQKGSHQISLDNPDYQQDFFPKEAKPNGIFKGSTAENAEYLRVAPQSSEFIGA
T1 sequence (P00533 25-1210 T790M/L858R): as above

Ki (EGFR T790M L858R) [nM] | Ki (EGFR del746-750 T790M) [nM] | EC50 [1] [nM] | EC50 [2] [nM] | SMILES
3.3 | 5.9 | 165 | 906 | CC(n1nc(N2CC[C@@H](O)C2)c2cnc(Nc3ccnc(N4CC[C@](C)(O)[C@H](F)C4)n3)cc21)C(F)(F)F (relative stereo) [Example 79, (3RS,4SR)-3-Fluoro-1-(4-(3-((R)-3-hydroxypyrrolidin-1-yl)-1-((S*)-1,1,1-trifluoropropan-2-yl)-1H-pyrazolo[4,3-c]pyridin-6-ylamino)pyrimidin-2-yl)-4-methylpiperidin-4-ol]
1.6 | 1.9 | 71.6 | 404 | CC(C)n1nc(N2CCC(C)(O)C2)c2cnc(Nc3ccnc(N4CC[C@@H](O)[C@@H](F)C4)n3)cc21 (relative stereo) [Example 104, (3S*,4R*)-3-fluoro-1-(4-((3-(3-hydroxy-3-methylpyrrolidin-1-yl)-1-isopropyl-1H-pyrazolo[4,3-c]pyridin-6-yl)amino)pyrimidin-2-yl)piperidin-4-ol]
2.5 | 6 | 466 | 1380 | CC1CN(c2nn(C(C)C)c3cc(Nc4ccnc(N5CC[C@H](O)[C@H](F)C5)n4)ncc23)C(=O)N1 (relative stereo) [Example 127, 1-(6-(2-(cis-3-Fluoro-4-hydroxypiperidin-1-yl)pyrimidin-4-ylamino)-1-isopropyl-1H-pyrazolo[4,3-c]pyridin-3-yl)-4-methylimidazolidin-2-one]
6.2 | 15.5 | 919 | 2040 | CC1CNC(=O)N1c1nn(C(C)C)c2cc(Nc3ccnc(N4CC[C@H](O)[C@H](F)C4)n3)ncc12 (relative stereo) [Example 128, 1-(6-(2-(cis-3-Fluoro-4-hydroxypiperidin-1-yl)pyrimidin-4-ylamino)-1-isopropyl-1H-pyrazolo[4,3-c]pyridin-3-yl)-5-methylimidazolidin-2-one]
0.8 | 1.2 | 129 | 1480 | CC(C)n1nc(N2C[C@@H](O)[C@H](F)C2)c2cnc(Nc3ccnc(N4CC[C@H](O)[C@H](F)C4)n3)cc21 (relative stereo) [Example 131, cis-3-Fluoro-1-(4-(3-(trans-3-fluoro-4-hydroxypyrrolidin-1-yl)-1-isopropyl-1H-pyrazolo[4,3-c]pyridin-6-ylamino)pyrimidin-2-yl)piperidin-4-ol]
1.6 | 2.7 | 89.2 | 769 | C[C@H](n1nc(N2CC[C@@H](O)C2)c2cnc(Nc3ccnc(N4CC[C@H](O)[C@H](F)C4)n3)cc21)C(F)(F)F (relative stereo) [Example 141, (±)-cis-3-Fluoro-1-(4-(3-((R)-3-hydroxypyrrolidin-1-yl)-1-((S*)-1,1,1-trifluoropropan-2-yl)-1H-pyrazolo[4,3-c]pyridin-6-ylamino)pyrimidin-2-yl)piperidin-4-ol]
1.6 | 3.1 | 110 | 1280 | C[C@@H](n1nc(N2CC[C@@H](O)C2)c2cnc(Nc3ccnc(N4CC[C@H](O)[C@H](F)C4)n3)cc21)C(F)(F)F (relative stereo) [Example 142, (±)-cis-3-Fluoro-1-(4-(3-((R)-3-hydroxypyrrolidin-1-yl)-1-((R*)-1,1,1-trifluoropropan-2-yl)-1H-pyrazolo[4,3-c]pyridin-6-ylamino)pyrimidin-2-yl)piperidin-4-ol]
1.7 | 2.1 | 87.2 | 489 | CCC(C)n1nc(N2C[C@@H](F)[C@@H](N)C2)c2cnc(Nc3ccnc(N4CCC(C)(O)CC4)n3)cc21 (relative stereo) [Example 177, 1-(4-(3-(cis-3-Amino-4-fluoropyrrolidin-1-yl)-1-sec-butyl-1H-pyrazolo[4,3-c]pyridin-6-ylamino)pyrimidin-2-yl)-4-methylpiperidin-4-ol]
1.4 | 4.7 | 83.2 | 483 | CCC(C)n1nc(N2C[C@H](O)[C@@H](F)C2)c2cnc(Nc3ccnc(N4CCC(C)(O)CC4)n3)cc21 (relative stereo) [Example 178, 1-(4-(1-sec-Butyl-3-(trans-3-fluoro-4-hydroxypyrrolidin-1-yl)-1H-pyrazolo[4,3-c]pyridin-6-ylamino)pyrimidin-2-yl)-4-methylpiperidin-4-ol]
5.6 | 15.1 | 746 | 1480 | CC(C#N)Nc1nn(C(C)C)c2cc(Nc3ccnc(N4CC[C@H](O)[C@H](F)C4)n3)ncc12 (relative stereo) [Example 179, 2-(6-(2-(cis-3-Fluoro-4-hydroxypiperidin-1-yl)pyrimidin-4-ylamino)-1-isopropyl-1H-pyrazolo[4,3-c]pyridin-3-ylamino)propanenitrile]
1.5 | 3.5 | 171 | 429 | CC[C@H](C)n1nc(N2CC(C(C)(C)O)C2)c2cnc(Nc3ccnc(N4CC[C@@H](O)[C@@H](F)C4)n3)cc21 (relative stereo) [Example 194, (3S,4R)-1-(4-((1-((S*)-sec-Butyl)-3-(3-(2-hydroxypropan-2-yl)azetidin-1-yl)-1H-pyrazolo[4,3-c]pyridin-6-yl)amino)pyrimidin-2-yl)-3-fluoropiperidin-4-ol]
3.8 | 10.1 | 1200 | 9130 | CC[C@@H](C)n1nc(N2CC[C@@H](O)C2)c2cnc(Nc3ccnc(N4CCC5(CC4)CNC(=O)CO5)n3)cc21 (relative stereo) [Example 208, 9-(4-((1-((R*)-sec-Butyl)-3-((R)-3-hydroxypyrrolidin-1-yl)-1H-pyrazolo[4,3-c]pyridin-6-yl)amino)pyrimidin-2-yl)-1-oxa-4,9-diazaspiro[5.5]undecan-3-one]
3.1 | 2.1 | 1850 | 4050 | CC[C@@H](C)n1nc(N2CC[C@@H](O)C2)c2cnc(Nc3ccnc(N4CC[C@](C)(C(N)=O)C4)n3)cc21 (relative stereo) [Example 210, (S*)-1-(4-((1-((R*)-sec-Butyl)-3-((R)-3-hydroxypyrrolidin-1-yl)-1H-pyrazolo[4,3-c]pyridin-6-yl)amino)pyrimidin-2-yl)-3-methylpyrrolidine-3-carboxamide]
2.1 | 4.6 | 63.8 | 631 | CC[C@H](C)n1nc(N2CC3(COC3)C2)c2cnc(Nc3ccnc(N4CC[C@@](C)(O)[C@@H](F)C4)n3)cc21 (single isomer, unassigned) [Example 66, (3R*,4S*)-1-{4-[1-((S)-sec-Butyl)-3-(2-oxa-6-azaspiro[3.3]hept-6-yl)-1H-pyrazolo[4,3-c]pyridin-6-ylamino]pyrimidin-2-yl}-3-fluoro-4-methylpiperidin-4-ol]
3.9 | 11.1 | 257 | 1160 | CC[C@@H](C)n1nc(N2CC3(COC3)C2)c2cnc(Nc3ccnc(N4CC[C@](C)(O)[C@H](F)C4)n3)cc21 (single isomer, unassigned) [Example 67, (3R*,4S*)-1-{4-[1-((R)-sec-Butyl)-3-(2-oxa-6-azaspiro[3.3]hept-6-yl)-1H-pyrazolo[4,3-c]pyridin-6-ylamino]pyrimidin-2-yl}-3-fluoro-4-methylpiperidin-4-ol]
3.2 | 10.2 | 157 | 851 | CC[C@@H](C)n1nc(N2CC3(COC3)C2)c2cnc(Nc3ccnc(N4CC[C@@](C)(O)[C@@H](F)C4)n3)cc21 (single isomer, unassigned) [Example 68, (3R*,4S*)-1-{4-[1-((R)-sec-Butyl)-3-(2-oxa-6-azaspiro[3.3]hept-6-yl)-1H-pyrazolo[4,3-c]pyridin-6-ylamino]pyrimidin-2-yl}-3-fluoro-4-methylpiperidin-4-ol]
1.2 | 2.7 | 129 | 213 | CC(C)n1nc(N2CCC(O)C2)c2cnc(Nc3ccnc(N4CC[C@@H](O)[C@@H](F)C4)n3)cc21 (single isomer, unassigned) [Example 105, (3S*,4R*)-3-fluoro-1-(4-((3-((R)-3-hydroxypyrrolidin-1-yl)-1-isopropyl-1H-pyrazolo[4,3-c]pyridin-6-yl)amino)pyrimidin-2-yl)piperidin-4-ol]
1.8 | 5.6 | 129 | 334 | CCC(C)n1nc(N2CC(C(C)(C)O)C2)c2cnc(Nc3ccnc(N4CC[C@@H](O)[C@@H](F)C4)n3)cc21 (single isomer, unassigned) [Example 193, (3S,4R)-1-(4-((1-((R*)-sec-Butyl)-3-(3-(2-hydroxypropan-2-yl)azetidin-1-yl)-1H-pyrazolo[4,3-c]pyridin-6-yl)amino)pyrimidin-2-yl)-3-fluoropiperidin-4-ol]
